Results published in US9980942B2, “Rejuvenation of precursor cells” (Children's Hospital Medical Center, priority 2012, dated 2018).
“Also recorded” adds a separate entry of the source.

Columns and labels:
aged LT-HSCs = experiment: Competitive serial LT-HSC transplantation after ex vivo CASIN treatment; format: in vivo, mouse
Protocol: For competitive LT-HSC transplantation, young (2-4-month-old) and aged (20-26-month-old) C57BL/6 mice (Ly5.2^+) were used as donors. 200 LT-HSCs were sorted into 96 multi-well plates and cultured (either in suspension or adherent to fibronectin) for 16 hrs in HBSS+10% FBS±CASIN (5 μM) in a water jacketed incubator at 37° C., 5% CO2, 3% O2. Stem cells were then mixed with 3×10^5 BM cells from young (2-4-month-old) BoyJ competitor mice (Ly5.1^+) and then transplanted into BoyJ recipient mice (Ly5.1^+).
Peripheral blood (PB) chimerism was determined by FACS analysis every 8 weeks. 24 weeks post primary transplants, 2×10^6 BM cells from an individual primary recipient mouse were injected into an individual secondary pre-conditioned recipient BoyJ mouse. Experiment was performed three times with LT-HSCs cultured in suspension and two times with LTHSCs cultured on a fibronectin-coated substrate without any difference in experimental outcome. Primary transplanted mice were regarded engrafted when PB chimerism was higher or equal to 1.0% and contribution was detected in all lineages. Secondary transplanted mice were regarded as engrafted when PB chimerism was higher or equal to 0.5% and contribution was detected in all lineages.
PB and BM cell immunostaining was performed according to standard procedures and samples were analyzed on a LSRII flow cytometer (BD Biosciences). Lineage FACS analysis data are plotted as the percentage of B220+, CD3+ and Myeloid (Gr-1+, Mac-1+ and Gr-1+Mac-1+) cells among donor-derived Ly5.2^+ cells. As for early hematopoiesis analysis, mononuclear cells were isolated by low-density centrifugation (Histopaque 1083, Sigma) and stained with a cocktail of biotinylated lineage antibodies. After lineage depletion by magnetic separation (Dynalbeads, Invitrogen), cells were stained with anti-Sca-1 (clone D7) (eBioscience), anti-c-kit (clone 2B8) (eBioscience), anti-CD34 (clone RAM34) (eBioscience), anti-CD127 (clone A7R34) (eBioscience), anti-Flk-2 (clone A2F10) (eBioscience) and Streptavidin (eBioscience). Early hematopoiesis FACS analysis data were plotted as percentage of long-term hematopoietic stem cells (LTHSCs, gated as LSK CD34−/lowFlk2−), short-term hematopoietic stem cells (ST-HSCs, gated as LSK CD34+Flk2−) and lymphoid-primed multipotent progenitors (LMPPs, gated as LSK CD34+Flk2+) (Adolfsson et al., 2005) distribution among donor-derived LSKs (Linnegc-kit+sca-1+ cells). LSK and common lymphoid progenitor cells (CLP, gated as Lin−c-Kit−/low Sca-1−/low IL7Rα+) (Karsunky et al., 2008) were plotted as percentage among donor-derived Linneg cells. In order to isolate LT-HSCs, lineage depletion was performed to enrich for lineage negative cells. Lineage negative cells were then stained as aforementioned and sorted using a BD FACS Aria I or a BD FACS Aria III (BD Bioscience).

intestinal epithelium = experiment: In vivo rejuvenation of intestinal epithelium (immunohistochemistry); conditions: vs untreated aged mice
Protocol: To test the extent to which CASIN rejuvenates skin and intestinal epithelium in vivo, aged (22-24 month old B1 6) and young (10-12 week old B1 6) mice were injected with CASIN twice daily (2.4 mg/Kg in PBS and 15% EtOH). A group of control mice in each age group were not given the drug. The injections were given 6 hours apart for 5 days. After 28 days, the mice were sacrificed and skin and intestinal samples were processed for immunohistochemistry.
To further assess the effects of in vivo administration of CASIN on aging parameters in the intestinal epithelium, aged mice were treated with CASIN as described in Example 5. After 28 days, the mice were sacrificed and intestinal samples were processed for immunohistochemistry, including staining for intestinal stem cell markers Bmi1 and Lgr5.

aged HSCs = experiment: Whole genome expression profiling of HSCs; format: cell-based; conditions: CASIN treated aged HSCs
Description: Aged HSCs have distinct whole genome expression profiles. To define the effect of Cdc42 inhibition by CASIN on molecular pathways regulating HSCs, cDNA was derived from linearly amplified RNA from CASIN-treated or untreated aged or young HSCs, using tested amplification, array hybridization and bioinformatic analysis services provided by the company Miltenyi. The goal of these experiments was to identify changes in whole genome expression patterns or in functionally defined groups of genes, rather than changes in individual genes. Differences in expression of functional gene groups was confirmed by real-time RT-PCR of selected genes using the standard ABI/Taqman probe system.

dorsal skin = experiment: Wound healing of full-thickness excision wounds after CASIN injection; format: in vivo, mice
Protocol: To further assess the effects of in vivo administration of CASIN on aging parameters in the skin, aged mice are treated with CASIN as described in Example 5. The treated and untreated aged and young mice are then tested for and wound healing, as described below.
On day 28 after initial treatment with CASIN, each mouse is tested with 25 mm oblong full-thickness excision wounds (6 mice of each type per experiment), including the striated muscle layer (panniculus carnosus), on the dorsal skin of treated and untreated mice. One day after surgery a clear thin film of dried exudate covers the wounds in both untreated and treated mice. Build-up of dehydrated wound crusts or scabs begin at day 3 and become subsequently more extensive. In the aged, untreated mice, scabs are thicker and extravasation of blood, visible in the gaps within the scabs, is more frequent and extensive than that in the treated mice. In control young mice, and in treated aged mice, loss of wound scabs begins at day 17 and is complete in all mice by day 24 with wounds well-healed and epithelial covering restored. In contrast, the scabs in untreated aged mice start to come off partially around day 14, resulting in a scab with a gaping red wound field, which is evident even at 22 days. Healing of untreated aged mice wounds remains incomplete on day 24, and complete healing in all mice is observed between 25 and 31 days. These experiments indicate that transient treatment (days 1-5) with CASIN causes improved healing of skin wounds.

[1] = Weight of young and aged mice after CASIN; format: in vivo, C57BL/6 mice; conditions: aged mice, 2.4 mg/kg twice a day for 5 days intraperitoneal, after 1 week
Protocol: CASIN was given at a dose of 2.4 mg/kg twice a day 6 hours apart for 5 days via intraperitoneal injection in both young (10-12 wk old) and aged (22-24 month old) C57BL/6 mice. Aged C57BL/6 mice present with elevated Cdc42 activity in multiple tissues. Weight of the mice was determined in the young and aged control group (no CASIN, just vehicle (PBS/15% Ethanol)) at initiation of the experiment and after 1 week, as well as in the CASIN treated groups (young and aged) at initiation and 1 week after.

[2] = aged mice treated as in Example 5, after 28 days
[3] = treated aged mice, 25 mm full-thickness excision wounds

SMILES: OCCNC1CCCc2c1[nH]c1ccc(-c3ccccc3)cc21 (centres unmarked) [CASIN]
- contribution to the B-cell compartment in PB (aged LT-HSCs; primary recipients): increase
- contribution to the myeloid lineage (aged LT-HSCs; primary recipients): reduced
- frequency of donor-derived LT-HSCs among donor-derived LSKs (aged LT-HSCs; primary recipients): significantly reduced
- B-cell and myeloid engraftment in PB and BM (aged LT-HSCs; secondary transplant): indistinguishable from young LT-HSCs
- contribution to the LT-HSC pool in BM (aged LT-HSCs; secondary transplant): indistinguishable from young LT-HSCs
- overall regenerative capacity (chimerism in PB) (aged LT-HSCs; secondary transplant, compared to aged LT-HSCs): increased and stable chimerism in PB
- number of stem cells in crypts (Bmi1 and Lgr5 staining) (intestinal epithelium; [2]): renewed number of stem cells
- shape, size and distribution of villi and crypts (intestinal epithelium; [2]): marked improvement
- shape, number and density of crypts (intestinal epithelium; aged mice, 2.4 mg/Kg twice daily for 5 days, after 28 days): marked improvement
- whole genome expression pattern (aged HSCs): largely resemble young HSCs
- wound healing (dorsal skin; aged mice treated as in Example 5): respond similarly or nearly identical to the skin of young mice
- loss of wound scabs begins (dorsal skin; [3]): 17 days
- loss of wound scabs complete in all mice (dorsal skin; [3]): ≤ 24 days
- weight [1]: significant reduction; also recorded: weight loss
